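Compound exposure: 48 hours, 5 concentrations, 96-well plates. GI50 = concentration required for 50% inhibition of growth.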 The source made the active and inactive calls. No stated cut-off is given here; in the data, active = GI50 up to about 1.1 µM and inactive = higher.
Key:
Experiment in all cases: DTP human tumour cell line panel, 48 h
[1] = test system: 786-0
[2] = test system: A498
[3] = test system: A549
[4] = test system: ACHN
[5] = test system: BT-549
[6] = test system: CAKI-1
[7] = test system: CCRF-CEM
[8] = test system: COLO 205
[9] = test system: DU-145
[10] = test system: EKVX
[11] = test system: HCC 2998
[12] = test system: HCT-116
[13] = test system: HCT-15
[14] = test system: HL-60
[15] = test system: HOP-62
[16] = test system: HOP-92
[17] = test system: HT-29
[18] = test system: Hs-578T
[19] = test system: IGROV-1
[20] = test system: K562
[21] = test system: KM12
[22] = test system: LOX IMVI
[23] = test system: M14
[24] = test system: MCF7
[25] = test system: MDA-MB-231
[26] = test system: MDA-MB-435
[27] = test system: MDA-N
[28] = test system: MOLT-4
[29] = test system: NCI-H226
[30] = test system: NCI-H23
[31] = test system: NCI-H460
[32] = test system: NCI-H522
[33] = test system: NCI/ADR-RES
[34] = test system: OVCAR-3
[35] = test system: OVCAR-4
[36] = test system: OVCAR-5
[37] = test system: OVCAR-8
[38] = test system: PC-3
[39] = test system: RXF 393
[40] = test system: SF-268
[41] = test system: SF-295
[42] = test system: SF-539
[43] = test system: SK-MEL-28
[44] = test system: SK-MEL-2
[45] = test system: SK-MEL-5
[46] = test system: SK-OV-3
[47] = test system: SN12C
[48] = test system: SNB-19
[49] = test system: SR
[50] = test system: SW-620
[51] = test system: T47D
[52] = test system: TK-10
[53] = test system: U-251
[54] = test system: UACC-257
[55] = test system: UACC-62
[56] = test system: UO-31
[57] = test system: Malme-3M
[58] = test system: RPMI-8226
[59] = test system: SNB-75

For `CCN1C(Cl)=NS(=O)(=O)c2ccccc21`, the GI50 [1] was 19.3 µM (inactive), the GI50 [2] was 22.4 µM (inactive) and the GI50 [3] was > 100 µM (inactive). For the same molecule, the GI50 [4] was 16.5 µM (inactive), the GI50 [5] was 17.5 µM (inactive) and the GI50 [6] was 1.93 µM (inactive). For the same molecule, the GI50 [7] was 3.9 µM (inactive), the GI50 [8] was 14.9 µM (inactive) and the GI50 [9] was 36.7 µM (inactive). For the same molecule, the GI50 [10] was 23.8 µM (inactive), the GI50 [11] was 20.3 µM (inactive) and the GI50 [12] was 23.8 µM (inactive). The GI50 [13] was 9.86 µM, the GI50 [14] was 3.87 µM (inactive) and the GI50 [15] was 25.2 µM (inactive). For the same molecule, the GI50 [16] was 18.8 µM (inactive), the GI50 [17] was 18.8 µM (inactive) and the GI50 [18] was 36.9 µM (inactive). For the same molecule, the GI50 [19] was 23.1 µM (inactive), the GI50 [20] was 7.83 µM (inactive) and the GI50 [21] was 51.8 µM (inactive). The GI50 [22] was 15.7 µM (inactive), the GI50 [23] was 14.9 µM (inactive) and the GI50 [24] was 27.5 µM (inactive). For the same molecule, the GI50 [25] was 23 µM (inactive), the GI50 [26] was 49.7 µM (inactive) and the GI50 [27] was 29.1 µM (inactive). For the same molecule, the GI50 [28] was 10.2 µM (inactive), the GI50 [29] was 21.6 µM (inactive) and the GI50 [30] was 23.6 µM (inactive). The GI50 [31] was 22.8 µM (inactive), the GI50 [32] was 4.66 µM (inactive) and the GI50 [33] was 26.5 µM (inactive). The GI50 [34] was 19.3 µM (inactive), the GI50 [35] was 19.4 µM (inactive) and the GI50 [36] was 26.4 µM (inactive). The GI50 [37] was 28.3 µM (inactive), the GI50 [38] was 50 µM (inactive) and the GI50 [39] was 17.3 µM (inactive). For the same molecule, the GI50 [40] was 36.6 µM (inactive), the GI50 [41] was > 100 µM (inactive) and the GI50 [42] was 15.9 µM (inactive). The GI50 [43] was 74.8 µM (inactive), the GI50 [44] was 39.7 µM (inactive) and the GI50 [45] was 13.6 µM (inactive). The GI50 [46] was 71.6 µM (inactive), the GI50 [47] was 18.6 µM (inactive) and the GI50 [48] was 35.5 µM (inactive). For the same molecule, the GI50 [49] was 34.1 µM (inactive), the GI50 [50] was 28.1 µM (inactive) and the GI50 [51] was 30 µM (inactive). The GI50 [52] was 18.5 µM (inactive), the GI50 [53] was 62.1 µM (inactive) and the GI50 [54] was 28 µM (inactive). The GI50 [55] was 9.06 µM (inactive) and the GI50 [56] was 16.9 µM (inactive).
In the case of `CCOC(=O)N1CC2(C(=O)OC)C=CC1C(C(=O)OC)C2` (stereo not drawn), the GI50 [1] is reported as > 100 µM (inactive), the GI50 [2] is reported as > 100 µM (inactive) and the GI50 [3] is reported as > 100 µM (inactive). For the same molecule, the GI50 [4] was > 100 µM (inactive), the GI50 [5] was > 100 µM (inactive) and the GI50 [6] was > 100 µM (inactive). The GI50 [7] was > 100 µM (inactive), the GI50 [8] was > 100 µM (inactive) and the GI50 [9] was > 100 µM (inactive). For the same molecule, the GI50 [10] was > 100 µM (inactive), the GI50 [11] was > 100 µM (inactive) and the GI50 [12] was > 100 µM (inactive). The GI50 [13] was greater than 100 µM, the GI50 [14] was > 100 µM (inactive) and the GI50 [15] was > 100 µM (inactive). The GI50 [18] was > 100 µM (inactive), the GI50 [19] was > 100 µM (inactive) and the GI50 [20] was > 100 µM (inactive). For the same molecule, the GI50 [21] was > 100 µM (inactive), the GI50 [22] was > 100 µM (inactive) and the GI50 [23] was > 100 µM (inactive). The GI50 [24] was > 100 µM (inactive), the GI50 [25] was > 100 µM (inactive) and the GI50 [26] was > 100 µM (inactive). For the same molecule, the GI50 [27] was > 100 µM (inactive), the GI50 [28] was > 100 µM (inactive) and the GI50 [57] was > 100 µM (inactive). For the same molecule, the GI50 [29] was > 100 µM (inactive), the GI50 [30] was > 100 µM (inactive) and the GI50 [31] was > 100 µM (inactive). The GI50 [32] was > 100 µM (inactive), the GI50 [33] was > 100 µM (inactive) and the GI50 [34] was > 100 µM (inactive). The GI50 [35] was > 100 µM (inactive), the GI50 [36] was > 100 µM (inactive) and the GI50 [37] was > 100 µM (inactive). The GI50 [38] was > 100 µM (inactive), the GI50 [58] was > 100 µM (inactive) and the GI50 [39] was > 100 µM (inactive). For the same molecule, the GI50 [40] was > 100 µM (inactive), the GI50 [41] was > 100 µM (inactive) and the GI50 [42] was > 100 µM (inactive). The GI50 [43] was > 100 µM (inactive), the GI50 [44] was > 100 µM (inactive) and the GI50 [45] was > 100 µM (inactive). For the same molecule, the GI50 [46] was > 100 µM (inactive), the GI50 [47] was > 100 µM (inactive) and the GI50 [48] was > 100 µM (inactive). The GI50 [59] was > 100 µM (inactive), the GI50 [49] was > 100 µM (inactive) and the GI50 [50] was > 100 µM (inactive). For the same molecule, the GI50 [51] was > 100 µM (inactive), the GI50 [52] was > 100 µM (inactive) and the GI50 [53] was > 100 µM (inactive). The GI50 [54] was > 100 µM (inactive), the GI50 [55] was > 100 µM (inactive) and the GI50 [56] was > 100 µM (inactive).
